Measurements taken from publication PMC5995255, “CD44 positive and sorafenib insensitive hepatocellular carcinomas respond to the ATP-competitive mTOR inhibitor INK128” (Oncotarget, 2018).

What was measured:
[1] = system: CD44high HCC cells (SNU423, SNU449, SK-Hep-1); test: Cell proliferation, WST-1 assay, CD44high HCC cells; assay type: cell-based, human
[2] = system: Huh7CD44, PLC/PRF/5CD44, Huh7EV and PLC/PRF/5EV cells; test: Cell proliferation, WST-1 assay, CD44 overexpressing versus empty vector cells; assay type: cell-based, human; settings: 72 h
Procedure: An optimized DNA fragment for CD44 overexpression was designed and ordered from Invitrogen using GeneArt® Gene Synthesis. The optimized DNA fragment was cloned using GeneArt® Seamless Cloning technology into a p-EGFP-C1 vector graciously obtained from Matthew Wood's Lab. Huh7 and PLC/PRF/5 cells (CD44low) were transfected with 1500 ng of either CD44 vector or empty vector using Lipofectamine 3000 (Invitrogen). Forty-eight h after transfection, cells were selected using 150 μg/ml hygromycin (Life Technologies). Western blotting was used to confirm successful transfection and expression of CD44.

[3] = system: SK-Hep1 subcutaneous xenografts; test: SK-Hep1 xenograft efficacy study; assay type: in vivo, athymic nude mice
Procedure: Immunodeficient athymic nude male mice (8 weeks) were obtained from Charles River laboratories and kept in the University's animal housing facility. SK-Hep1 cells were prepared from a low-passage, logarithmically growing population of cells. SK-Hep1 (3 × 10^6 cells) were suspended in 150 ul of Matrigel (Corning, NY, USA) and injected subcutaneously into the right flank of the mice. Three weeks after implantation, tumor sizes were measured using a Fisherbrand™ Traceable™ Digital Caliper (Thermo), the animals were randomized based on tumor size, and treatment was initiated. Tumor size measurements were taken twice a week throughout the treatment period.
Athymic nude mice bearing SK-Hep1 tumors were randomized into four groups (n = 10 per group); vehicle, sorafenib, INK128 and combination. Sorafenib (10 mg/kg) was prepared as a 4× stock solution in cremophor EL:ethanol (50:50), and diluted using water on the day of the treatment. Vehicle and sorafenib groups received their respective treatments every day via oral gavage. INK128 (3 mg/kg) was prepared in 10% DMSO and dosed via oral gavage every other day. The combination group received a daily dose of sorafenib (10 mg/kg) along with INK128 (3 mg/kg) every other day. Mice were monitored every day, and body weight and tumor size measurements were recorded twice a week throughout the treatment period. Tumor volume was calculated using the equation V= ½ × L × W^2. Treatment was continued for 24 days after which the animals were euthanized. Tumor growth is represented as percentage change from baseline tumor volume.

[4] = system: CD44 and vimentin protein expression in SNU423 cells; test: Immunoblotting of CD44 and vimentin protein; assay type: cell-based, human; settings: 48 h; SNU423 (rapalogs also SNU449)
Procedure: (§1) Cell protein lysates (20–30 μg) were separated on NuPAGE 4–12% Bis-Tris gels (Novex) electrophoretically and transferred to polyvinylidene difluoride membranes (Roche). Membranes were blocked for 1 h with 5% Bovine Serum Albumin in Tris-buffered saline containing 0.05% Tween 20 and incubated overnight with primary antibody. The following primary antibodies were used: anti-CD44 (Cell signaling, #3578), anti-vimentin (Abcam, ab92547), anti-total S6K (Cell signaling, # 2708), anti-phosphorylated S6K (Cell signaling, #9234), anti-total 4EBP-1 (Cell signaling, #9644), anti-phosphorylated 4EBP-1(Cell signaling, #2855) and anti-PARP (Cell signaling # 9532) Anti-GAPDH (Santa Cruz Biotechnology, sc-32233) and anti-β actin (Cell Signaling, 4970S) antibodies were used as loading controls. A secondary anti-rabbit (Cell Signaling) or anti-mouse immunoglobulin G (IgG) antibody peroxidase conjugate (GE Healthcare) was detected using ECL Western Blotting Analysis System (Amersham Biosciences).

SNU423 cells = test: Wound healing (in vitro migration) assay; assay type: cell-based, human; settings: 500 nM; 30 h migration
Procedure: SNU423 cells were treated with either INK128 or everolimus at 500 nM or vehicle control (1% DMSO). At 24 h after treatment or transfection, 70 μl of the treated cells (3 × 10^5 cells/mL) was placed into each well of ibidi culture-insert (ibidi, LLC). After an overnight incubation, the culture insert was removed to create a cell-free gap in a monolayer of the cells. The gap closure area was photographed and analyzed by Tscratch software. Wound healing assay was further performed using Huh7 and PLC/PRF/5 cells to determine the effects of CD44 overexpression of migration. The percentage of the gap closure area based on the initial point at time zero was calculated from at least two independent experiments.

phosphorylation of S6K = test: Immunoblotting of phosphorylated S6K; assay type: cell-based, human; settings: CD44high cells; 48 h
Procedure: as §1

[5] = INK128 plasma pharmacokinetic study; assay type: in vivo, ICR mice
Procedure: All animal experiments were carried out under protocols approved by the Institutional Laboratory Animal Care and Use Committee at the Ohio State University. Imprinting control region (ICR) female mice (6 weeks) were obtained from Charles Rivers (Wilmington, MA, USA). Mice were acclimated in the animal housing facility for one week before the start of the study. After overnight fasting, INK128 (3 mg/kg) was administered by oral gavage (PO) in 10% DMSO. At different time points, mice were euthanized by carbon dioxide asphyxiation, and blood was immediately collected by cardiac puncture into lithium heparinized tubes (BD Microtainer, Becton, Dickson and Company, NJ, USA). Blood samples were centrifuged at 6000 × g for 5 min at 4°C. Plasma was collected and kept on dry ice before being stored at −80°C until analysis.
Plasma samples were thawed on ice. Blank mouse plasma was used for standard curves. Plasma aliquots (100 ul) were spiked with hesperetin (10 ul, 5000 ng/ml) as an internal standard and mixed by vortexing. Drugs were extracted with simple protein precipitation using cold acetonitrile, and the mixture was centrifuged at 13000 × g for 10 min. The supernatant was collected and dried under nitrogen. Dried samples were reconstituted with 200 ul 1% formic acid. Samples were analyzed using liquid chromatography–tandem mass spectrometry (LC-MS/MS) system consisting of Thermo Accela UHPLC pump, Thermo PAL autosampler, and Thermo TSQ Discovery triple quadruple mass spectrometer (Thermo, Waltham, MA, USA). Chromatographic separation was done using an Agilent Zobrax Extend C-18 column. Linear gradient elution was used at a flow rate of 400 ul/min, with a mobile phase of […] and 95% acetonitrile, modified with 0.2% formic acid. Non-compartmental analysis of the pharmacokinetic parameters as well as compartmental model fitting of the data was carried using Phoenix® 7.0 (Certara, New Jersey, USA).

phosphorylation of 4EBP1 = test: Immunoblotting of phosphorylated 4EBP1; assay type: cell-based, human; settings: CD44high cells; 48 h
Procedure: as §1

[6] = system: sorafenib resistant Huh7 cells; test: Cell proliferation, WST-1 assay, sorafenib resistant Huh7; assay type: cell-based, human; settings: 72 h
Procedure: A sorafenib-resistant Huh7 cell line was established by long term exposure to incremental concentrations of sorafenib (LC Laboratories, USA) as reported. Following six months of culture in 10 cm cell culture dishes, resistant cells were diluted out in 96 well plates and single cell clones were selected and scaled up to be used in further experiments.

[7] = system: CD44 or vimentin mRNA in SNU423 cells; test: qRT-PCR of CD44 and vimentin mRNA; assay type: cell-based, human; settings: 500 nM; 48 h
Procedure: Total RNA was isolated from ATP-competitive mTOR inhibitor treated cells using miRNeasy® Mini kit (Qiagen). cDNA was synthesized according to the manufacturer's protocol (Invitrogen). Five hundred ng of total RNA was used to synthesize cDNA using random primers. cDNA was analyzed for gene expression using gene specific primers (IDT) and the Express SYBR® GreenER qPCR super mix (Invitrogen). Data were normalized to 18S rRNA and the relative expression of genes was presented using the comparative CT method. The following primers were used; CD44: 5′-TGCAGTT […]-3′ (forward) and 5′-[…]-3′ (reverse), Vimentin: 5′-CAGC […]-3′ (forward) and 5′-ATCCT […]-3′ (reverse), 18S: 5′-GT […]-3′(forward) and 5′-CCAT […]-3′(reverse)

[8] = system: HCC cell lines (SNU423, SNU449 and Huh7); test: Cell proliferation, WST-1 assay, three HCC cell lines; assay type: cell-based, human; settings: 48 h
[9] = 3 mg/kg oral gavage, single dose, plasma
[10] = female, ICR, mouse, plasma, po, 3 mg/kg, 3 mg/kg oral gavage, single dose
[11] = female, ICR, mouse, 3 mg/kg oral gavage, single dose, plasma

CC(C)n1nc(-c2ccc3oc(N)nc3c2)c2c(N)ncnc21 [INK128]
reduction of proliferation in CD44high compared to CD44low cells ([1]; 72 h, CD44low: Huh7, PLC/PRF/5, HepG2): more effective | inhibition at 0.1 µM ([1]; Homo sapiens, 100 nM, CD44high cells (Figure 1C), read-out: inhibition in cellular proliferation): 60% | anti-proliferative activity versus allosteric mTOR inhibitors ([1]; SNU423 and SNU449 cells, 48 h): better anti-proliferative activity than rapamycin and everolimus | anti-proliferative response of CD44 expressing cells versus empty vector cells ([2]; 500 nM): responded better | reduction of tumor burden compared to vehicle control or sorafenib alone ([3]; 3 mg/kg every other day oral): up to 30% | reduction in tumor volume (from baseline) ([3]; INK128 3 mg/kg every other day oral, alone or with sorafenib 10 mg/kg daily, 24 days): 24% | CD44 and vimentin protein expression [4]: great reduction | decrease of cell movement compared to vehicle control (SNU423 cells): 50% | phosphorylation of S6K (phosphorylation of S6K): inhibited | time with drug concentrations greater than 100 nM ([5]; 3 mg/kg oral gavage): approximately 16 h | CL [5, 9]: 0.000582 L/min | Cmax [5, 9]: 2030 nM | tolerability ([5]; 3 mg/kg oral, all animals of the pharmacokinetic study): well tolerated | Cmax [5, 10]: 2030 nM | Tmax [5, 10]: ≤ 0.25 h | concentration at 24 h ([5]; female, ICR, mouse, plasma, 3 mg/kg oral gavage, 24 h, read-out: plasma concentration 24 h post dose): 24.6 nM | AUC(0-t) [5, 11]: 7.38 µM·h | half-life [5, 11]: 1.81 h | phosphorylation of 4EBP1 (phosphorylation of 4EBP1): inhibited | anti-proliferative effects versus wildtype CD44low Huh7 cells [6]: greater anti-proliferative effects | CD44 or vimentin mRNA [7]: no change

CO[C@H]1C[C@@H]2CC[C@@H](C)[C@@](O)(O2)C(=O)C(=O)N2CCCC[C@H]2C(=O)O[C@H]([C@H](C)C[C@@H]2CC[C@@H](OCCO)[C@H](OC)C2)CC(=O)[C@H](C)/C=C(\C)[C@@H](O)[C@@H](OC)C(=O)[C@H](C)C[C@H](C)/C=C/C=C/C=C/1C [everolimus]
CD44 and vimentin protein expression [4]: did not alter | decrease of cell movement compared to vehicle control (SNU423 cells): 20% | phosphorylation of S6K (phosphorylation of S6K): blocked | proliferation (lowest level reached) ([8]; even at 5000 nM): ≥ 40% | phosphorylation of 4EBP1 (phosphorylation of 4EBP1): did not inhibit

CO[C@H]1C[C@@H]2CC[C@@H](C)[C@@](O)(O2)C(=O)C(=O)N2CCCC[C@H]2C(=O)O[C@H]([C@H](C)C[C@@H]2CC[C@@H](O)[C@H](OC)C2)CC(=O)[C@H](C)/C=C(\C)[C@@H](O)[C@@H](OC)C(=O)[C@H](C)C[C@H](C)/C=C/C=C/C=C/1C [rapamycin]
CD44 and vimentin protein expression [4]: did not alter | phosphorylation of S6K (phosphorylation of S6K): blocked | proliferation (lowest level reached) [8]: ≥ 40% | phosphorylation of 4EBP1 (phosphorylation of 4EBP1): did not inhibit

CNC(=O)c1cc(Oc2ccc(NC(=O)Nc3ccc(Cl)c(C(F)(F)F)c3)cc2)ccn1 [sorafenib]
ability to reduce proliferation as a function of CD44 protein [2]: no difference | tumor size increase compared to baseline ([3]; 10 mg/kg daily oral gavage, 24 days): 46% | inhibition in tumor growth compared to vehicle control ([3]; 10 mg/kg daily oral, not significant): approximately 15%
